Consider seven compounds from PubChem BioAssay (NCI).

Some test systems named below: MALME-3M melanoma; SN12C renal; OVCAR-3 ovarian; NCI-H23 lung; MCF7 breast; UACC-62 melanoma; A498 renal; COLO 205 colon; SF-539 CNS; UACC-257 melanoma.
Experiment in all cases: inhibition of tumour cell growth, NCI panel, 48 h

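48-hour exposure; five concentrations; linearly interpolated endpoints. GI50 = concentration required for 50% inhibition of growth. TGI: concentration producing complete growth inhibition.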

`O=C(CC12CC3CC(CC(C3)C1)C2)NCCOCCOCCNC(=O)c1cc2c(o1)C(=O)c1ccccc1C2=O`: the GI50 with MALME-3M melanoma was 0.134 µM; in the assay on SN12C renal it was 0.595 µM; with OVCAR-3 ovarian, 0.243 µM; in the assay on NCI-H23 lung, 0.133 µM; in the assay on MCF7 breast, 0.54 µM; in the assay on UACC-62 melanoma it was 0.271 µM. The GI50 with A498 renal was 1.6 µM; with COLO 205 colon it was 1.28 µM; with SF-539 CNS, 1.14 µM; in the assay on UACC-257 melanoma it was 1.14 µM. Further, the TGI in the assay with MALME-3M melanoma came to 0.264 µM; in the assay on SN12C renal it was 1.87 µM; with OVCAR-3 ovarian, 0.72 µM; with NCI-H23 lung, 0.469 µM; in the assay with MCF7 breast, 2.38 µM; in the assay with UACC-62 melanoma, 0.748 µM. In addition, the TGI with A498 renal was determined as 3.16 µM; with COLO 205 colon, 2.76 µM; in the assay with SF-539 CNS, 2.37 µM; with UACC-257 melanoma it was 2.43 µM.

For `CCOc1ccc(NC(=O)Nc2cc(C(C)C)ccc2C)cc1`, the GI50 was 3.74 µM in the assay with MALME-3M melanoma; 5.15 µM in the assay with SN12C renal; 5.33 µM in the assay with OVCAR-3 ovarian; 16.4 µM in the assay on NCI-H23 lung; 11.8 µM in the assay on MCF7 breast; 16.2 µM in the assay with UACC-62 melanoma. In addition, the GI50 is 3.65 µM in the assay on A498 renal, 15.3 µM in the assay with COLO 205 colon, 4.39 µM in the assay with SF-539 CNS and 8.83 µM in the assay on UACC-257 melanoma. For the same compound, the TGI in the assay on MALME-3M melanoma was 18.2 µM; with SN12C renal, 24 µM; with OVCAR-3 ovarian, 13.6 µM; in the assay on NCI-H23 lung, 98.1 µM; in the assay with MCF7 breast, above 57.8 µM; with UACC-62 melanoma, above 89.8 µM. Also, the TGI in the assay with A498 renal was 18.6 µM; with COLO 205 colon it was above 100 µM; in the assay with SF-539 CNS, 16.6 µM; in the assay on UACC-257 melanoma, 44.9 µM.

On to `COc1ccc2c(c1)C(=O)c1c-2c(NCCCN(C)C)nc2ccccc12`, for which the GI50 is 3.86 µM with MALME-3M melanoma; 2.26 µM in the assay on SN12C renal; 15.3 µM in the assay with OVCAR-3 ovarian; 2.78 µM in the assay with NCI-H23 lung; 1.54 µM in the assay with MCF7 breast; 2.09 µM in the assay with UACC-62 melanoma. The GI50 in the assay with A498 renal was 11.3 µM; in the assay with COLO 205 colon, 5.23 µM; in the assay with SF-539 CNS, 10.8 µM; with UACC-257 melanoma, 11.8 µM. Also, the TGI in the assay with MALME-3M melanoma came to 15.5 µM; in the assay on SN12C renal, 6.84 µM; with OVCAR-3 ovarian it was 31.7 µM; with NCI-H23 lung it was 10 µM; in the assay with MCF7 breast, 4.05 µM; in the assay on UACC-62 melanoma, 4.41 µM. The TGI in the assay with A498 renal worked out at 23.8 µM; in the assay on COLO 205 colon, 18.8 µM; with SF-539 CNS, 24.6 µM; in the assay on UACC-257 melanoma, 25.4 µM.

For the compound `O=C1Nc2ccc(F)c3c(OCCO)cc(-c4ccc[nH]4)c1c23`, the GI50 in the assay with MALME-3M melanoma is 3.47 µM; with SN12C renal, 1.11 µM; in the assay on OVCAR-3 ovarian, 3.59 µM; in the assay with NCI-H23 lung, 1.27 µM; with MCF7 breast it was 0.81 µM; with UACC-62 melanoma it was 2.78 µM. Besides, the GI50 in the assay on A498 renal was 0.896 µM; in the assay on COLO 205 colon, 1.33 µM; in the assay with SF-539 CNS it was 2.19 µM; in the assay with UACC-257 melanoma, 4.94 µM. Also, the TGI with MALME-3M melanoma worked out at 11.5 µM; in the assay on SN12C renal, 9.83 µM; with OVCAR-3 ovarian it was 9.7 µM; in the assay with NCI-H23 lung it was 8.05 µM; in the assay on MCF7 breast it was 10.9 µM; in the assay on UACC-62 melanoma, 6.33 µM. Besides, the TGI was determined as 4.24 µM in the assay on A498 renal, 5.79 µM in the assay with COLO 205 colon, 6.12 µM in the assay on SF-539 CNS and 17.9 µM with UACC-257 melanoma.

In the case of `c1ccc2c(c1)O[As](O[As]1Oc3ccccc3O1)O2`, the GI50 in the assay with MALME-3M melanoma was 2.32 µM; in the assay on SN12C renal, 3.02 µM; with OVCAR-3 ovarian, 2.35 µM; in the assay with MCF7 breast, 1.86 µM; in the assay on A498 renal it was 1.6 µM; in the assay on COLO 205 colon it was 5.42 µM. The GI50 was 1.84 µM with SF-539 CNS and 2.07 µM in the assay on UACC-257 melanoma. The TGI in the assay on MALME-3M melanoma is 5.21 µM; in the assay with SN12C renal, 14.9 µM; in the assay on OVCAR-3 ovarian, 7.41 µM; with MCF7 breast, 13.2 µM; in the assay with A498 renal, 5.64 µM; in the assay with COLO 205 colon, 20.2 µM. The figures for the TGI in the assay with SF-539 CNS and in the assay with UACC-257 melanoma were 6.27 µM and 9.88 µM, respectively.

Take `O=C1OCC(c2ccc(O)c(O)c2)=C1c1cc(O)c(O)c(O)c1`: the GI50 in the assay on MALME-3M melanoma is above 100 µM; with SN12C renal it was 15.8 µM; with OVCAR-3 ovarian it was 12.9 µM; in the assay with NCI-H23 lung, 19.2 µM; with MCF7 breast, 36.9 µM; in the assay with UACC-62 melanoma, 52.7 µM. Also, the GI50 with A498 renal is above 100 µM; in the assay with COLO 205 colon, 23.3 µM; in the assay with SF-539 CNS, 22.8 µM; in the assay with UACC-257 melanoma, 93.8 µM. Further, the TGI in the assay with MALME-3M melanoma was above 100 µM; with SN12C renal, 29.6 µM; in the assay on OVCAR-3 ovarian, 26.5 µM; with NCI-H23 lung it was 38.2 µM; in the assay with MCF7 breast it was above 100 µM; with UACC-62 melanoma, above 100 µM. Further, the TGI in the assay on A498 renal was above 100 µM; in the assay on COLO 205 colon it was 57.7 µM; in the assay with SF-539 CNS, 47.9 µM; with UACC-257 melanoma, above 100 µM.

Turning to `COCCNCC(O)Cn1c2ccc(Cl)cc2c2cc(Cl)ccc21` (centres undefined), the GI50 with MALME-3M melanoma was 1.98 µM; in the assay on SN12C renal, 1.94 µM; with OVCAR-3 ovarian, 1.95 µM; in the assay with NCI-H23 lung, 2.1 µM; in the assay with MCF7 breast it was 1.81 µM; in the assay with A498 renal, 1.73 µM. Also, the GI50 was 2.08 µM with COLO 205 colon, 1.8 µM in the assay with SF-539 CNS and 1.68 µM in the assay on UACC-257 melanoma. In addition, the TGI in the assay with MALME-3M melanoma was determined as 3.89 µM; with SN12C renal, 4.46 µM; in the assay on OVCAR-3 ovarian it was 3.66 µM; in the assay with NCI-H23 lung, 4.7 µM; in the assay with MCF7 breast it was 3.49 µM; with A498 renal, 5.32 µM. For the same compound, the TGI is 3.83 µM in the assay on COLO 205 colon, 3.43 µM in the assay on SF-539 CNS and 3.35 µM in the assay on UACC-257 melanoma.
